The compounds below were run against T1, rat NHE-3 (Rattus norvegicus, UniProt P26433) (assay: Cell-based assay of NHE-3 activity (Pharmacological Test Example 1)). Settings: OK cells expressing rat NHE-3; 0-30 uM test compound, 5 uM EIPA.
T1 construct: expressed in transfected cells; host or cells: Opossum kidney (OK) cells (ATCC), electroporated
Protocol: Rat NHE-3-mediated Na^+-dependent H^+ antiport was measured using a modification of the pH sensitive dye method originally reported by Tsien (Proc. Natl. Acad. Sci. USA. (1984) 81(23): 7436-7440). Opossum kidney (OK) cells were obtained from the ATCC and propagated per their instructions. The rat NHE-3 gene was introduced into OK cells via electroporation, seeded into 96 well plates and grown overnight. Medium was aspirated from the wells, cells were washed twice with NaCl-HEPES buffer (100 mM NaCl, 50 mM HEPES, 10 mM glucose, 5 mM KCl, 2 mM CaCl2, 1 mM MgCl2, pH 7.4), then incubated for 30 min at room temperature with NH4Cl-HEPES buffer (20 mM NH4Cl, 80 mM NaCl, 50 mM HEPES, 5 mM KCl, 2 mM CaCl2), 1 mM MgCl2, pH 7.4) containing 5 uM BCECF-AM (Invitrogen). Cells were washed twice with Ammonium free, Nat-free HEPES (100 mM choline, 50 mM HEPES, 10 mM glucose, 5 mM KCl, 2 mM CaCl2), 1 mM MgCl2, pH 7.4) and incubated in the same buffer for 10 minutes at room temperature to lower intracellular pH. […] Initial rates were plotted as the average 3-6 replicates, and pIC50 values were estimated using GraphPad Prism.

T1 sequence (P26433 29-831): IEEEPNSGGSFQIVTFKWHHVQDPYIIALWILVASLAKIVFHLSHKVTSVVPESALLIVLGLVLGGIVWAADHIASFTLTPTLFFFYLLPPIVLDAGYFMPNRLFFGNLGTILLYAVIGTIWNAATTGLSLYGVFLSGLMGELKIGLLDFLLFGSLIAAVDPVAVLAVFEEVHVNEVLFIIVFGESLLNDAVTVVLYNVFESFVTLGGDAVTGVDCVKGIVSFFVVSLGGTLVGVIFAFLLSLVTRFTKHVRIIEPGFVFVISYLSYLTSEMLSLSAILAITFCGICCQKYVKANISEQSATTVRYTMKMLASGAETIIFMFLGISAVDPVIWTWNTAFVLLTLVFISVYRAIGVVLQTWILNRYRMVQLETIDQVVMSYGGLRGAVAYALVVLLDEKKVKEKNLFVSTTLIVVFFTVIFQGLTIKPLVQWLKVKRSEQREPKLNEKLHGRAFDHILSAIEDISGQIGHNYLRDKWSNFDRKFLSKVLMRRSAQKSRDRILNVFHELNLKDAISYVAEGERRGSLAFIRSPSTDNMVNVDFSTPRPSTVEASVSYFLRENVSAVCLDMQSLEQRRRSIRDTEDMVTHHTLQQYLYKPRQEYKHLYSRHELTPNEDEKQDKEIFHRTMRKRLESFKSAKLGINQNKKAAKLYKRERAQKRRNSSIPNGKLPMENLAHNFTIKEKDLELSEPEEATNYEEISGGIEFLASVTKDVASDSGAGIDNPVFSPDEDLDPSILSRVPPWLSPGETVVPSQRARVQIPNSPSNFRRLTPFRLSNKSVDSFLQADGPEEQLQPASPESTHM

| Structure (SMILES) | rat NHE-3 Average pIC50 |
| --- | --- |
| Nc1cccc(C2CN(CCOCCOCCOCCN3Cc4c(Cl)cc(Cl)cc4C(c4cccc(N)c4)C3)Cc3c(Cl)cc(Cl)cc32)c1 (stereo not drawn) [Example 171, 3,3′-(2,2′-(2,2′-(2,2′-oxybis(ethane-2,1-diyl)bis(oxy))bis(ethane-2,1-diyl))bis(6,8-dichloro-1,2,3,4-tetrahydroisoquinoline-4,2-diyl))dianiline] | <5.0 |
| C/C(=C\c1cc(F)c(Oc2ccc(S(=O)(=O)NCCOCCOCCOCCOCCOCCOCCNC(=O)[C@H](O)[C@@H](O)C(=O)NCCOCCOCCOCCOCCOCCOCCNS(=O)(=O)c3ccc(Oc4c(F)cc(/C=C(\C)C(=O)N=C(N)N)cc4F)cc3)cc2)c(F)c1)C(=O)N=C(N)N [Example 210, (2R,3R)—N1,N4-bis(20-(4-(4-((E)-3-(diaminomethyleneamino)-2-methyl-3-oxoprop-1-enyl)-2,6-difluorophenoxy)phenylsulfonamido)-3,6,9,12,15,18-hexaoxaicosyl)-2,3-dihydroxysuccinamide] | 6 to 7 |
| N=C(N)N1CCN(c2ccc(-c3nc(N=C(N)N)nc4ccc(Cl)cc34)cc2)CC1 [Example 66, 4-(4-(6-chloro-2-(diaminomethyleneamino)quinazolin-4-yl)phenyl)piperazine-1-carboximidamide] | 6 to 7 |
| C/C(=C\c1cc(F)c(Oc2ccc(S(=O)(=O)NCCOCCOCCOCCOCCOCCOCCNC(=O)C(O)C(O)C(=O)NCCOCCOCCOCCOCCOCCOCCNS(=O)(=O)c3ccc(Oc4c(F)cc(/C=C(\C)C(=O)N=C(N)N)cc4F)cc3)cc2)c(F)c1)C(=O)N=C(N)N (stereo not drawn) [Example 104, N1,N4-bis(20-(4-(4-((E)-3-(diaminomethyleneamino)-2-methyl-3-oxoprop-1-enyl)-2,6-difluorophenoxy)phenylsulfonamido)-3,6,9,12,15,18-hexaoxaicosyl)-2,3-dihydroxysuccinamide] | 6 to 7 |
| CN1Cc2c(Cl)cc(Cl)cc2C(c2ccc(S(=O)(=O)NCCOCCOCCNC(=O)C(=O)NCCOCCOCCNS(=O)(=O)c3ccc(C4CN(C)Cc5c(Cl)cc(Cl)cc54)cc3)cc2)C1 (stereo not drawn) [Example 175, N1,N2-bis(2-(2-(2-(4-(6,8-dichloro-2-methyl-1,2,3,4-tetrahydroisoquinolin-4-yl)phenylsulfonamido)ethoxy)ethoxy)ethyl)oxalamide] | <5.0 |
| CN1Cc2c(Cl)cc(Cl)cc2C(c2ccc(S(=O)(=O)NCCOCCOCCOCCNC(=O)CCOCCOCCOCCOCCOCCOCCOCCOCCOCCC(=O)NCCOCCOCCOCCNS(=O)(=O)c3ccc(C4CN(C)Cc5c(Cl)cc(Cl)cc54)cc3)cc2)C1 (stereo not drawn) [Example 98, N1,N31-bis(2-(2-(2-(2-(4-(6,8-dichloro-2-methyl-1,2,3,4-tetrahydroisoquinolin-4-yl)phenylsulfonamido)ethoxy)ethoxy)ethoxy)ethyl)-4,7,10,13,16,19,22,25,28-nonaoxahentriacontane-1,31-diamide] | >7 |
| C/C(=C\c1cc(F)c(Oc2ccc(S(=O)(=O)NCCOCCOCCOCCN)cc2)c(F)c1)C(=O)N=C(N)N [Example 45, (E)-3-(4-(4-(N-(2-(2-(2-(2-aminoethoxy)ethoxy)ethoxy)ethyl)sulfamoyl)phenoxy)-3,5-difluorophenyl)-N-(diaminomethylene)-2-methylacrylamide] | 6 to 7 |
| N=C(N)Nc1nc(-c2cccc(N3CCN(CCC(=O)O)CC3)c2)c2cc(Cl)ccc2n1 [Example 64, 3-(4-(3-(6-chloro-2-(diaminomethyleneamino)quinazolin-4-yl)phenyl)piperazin-1-yl)propanoic acid] | 5 to 6 |

The remaining lines, values ahead:

| rat NHE-3 Average pIC50 | Structure (SMILES) |
| --- | --- |
| >7 | CN1Cc2c(Cl)cc(Cl)cc2C(c2cccc(S(=O)(=O)NCCOCCOCCNC(=O)COCC(=O)NCCOCCOCCNS(=O)(=O)c3cccc(C4CN(C)Cc5c(Cl)cc(Cl)cc54)c3)c2)C1 (stereo not drawn) [Example 195, 2,2′-oxybis(N-(2-(2-(2-(3-(6,8-dichloro-2-methyl-1,2,3,4-tetrahydroisoquinolin-4-yl)phenylsulfonamido)ethoxy)ethoxy)ethyl)acetamide)] |
| 5 to 6 | CN1Cc2c(Cl)cc(Cl)cc2C(c2cccc(S(=O)(=O)NCCOCCOCCNC(=O)C(C)(C)C(=O)NCCOCCOCCNS(=O)(=O)c3cccc(C4CN(C)Cc5c(Cl)cc(Cl)cc54)c3)c2)C1 (stereo not drawn) [Example 196, N1,N3-bis(2-(2-(2-(3-(6,8-dichloro-2-methyl-1,2,3,4-tetrahydroisoquinolin-4-yl)phenylsulfonamido)ethoxy)ethoxy)ethyl)-2,2-dimethylmalonamide] |
| 6 to 7 | CN1Cc2c(Cl)cc(Cl)cc2C(c2cccc(S(=O)(=O)NCCOCCOCCOCCNC(=O)CCCCCCC(=O)NCCOCCOCCOCCNS(=O)(=O)c3cccc(C4CN(C)Cc5c(Cl)cc(Cl)cc54)c3)c2)C1 (stereo not drawn) [Example 29, N1,N8-bis(2-(2-(2-(2-(3-(6,8-dichloro-2-methyl-1,2,3,4-tetrahydroisoquinolin-4-yl)phenylsulfonamido)ethoxy)ethoxy)ethoxy)ethyl)octanediamide] |
| 6 to 7 | CN1Cc2c(Cl)cc(Cl)cc2C(c2cccc(S(=O)(=O)NCCOCCOCCOCCNC(=O)CCOCCOCCOCCOCCOCCOCCOCCOCCOCCC(=O)NCCOCCOCCOCCNS(=O)(=O)c3cccc(C4CN(C)Cc5c(Cl)cc(Cl)cc54)c3)c2)C1 (stereo not drawn) [Example 97, N1,N31-bis(2-(2-(2-(2-(3-(6,8-dichloro-2-methyl-1,2,3,4-tetrahydroisoquinolin-4-yl)phenylsulfonamido)ethoxy)ethoxy)ethoxy)ethyl)-4,7,10,13,16,19,22,25,28-nonaoxahentriacontane-1,31-diamide] |
| >7 | CN1Cc2c(Cl)cc(Cl)cc2C(c2cccc(S(=O)(=O)NCCOCCOCCNCc3ccc(CNCCOCCOCCNS(=O)(=O)c4cccc(C5CN(C)Cc6c(Cl)cc(Cl)cc65)c4)cc3)c2)C1 (stereo not drawn) [Example 206, N,N′-(2,2′-(2,2′-(2,2′-(1,4-phenylenebis(methylene))bis(azanediyl)bis(ethane-2,1-diyl))bis(oxy)bis(ethane-2,1-diyl))bis(oxy)bis(ethane-2,1-diyl))bis(3-(6,8-dichloro-2-methyl-1,2,3,4-tetrahydroisoquinolin-4-yl)benzenesulfonamide)] |

Same assay, conditions: OK cells expressing rat NHE-3; 0-30 uM test compound, 5 uM EIPA; read-out: rat NHE-3 Average pIC50 (converted)

| Structure (SMILES) | IC50 [nM] |
| --- | --- |
| C/C(=C\c1cc(F)c(Oc2ccc(S(=O)(=O)NCCOCCOCCOCCNC(=O)CCOCCOCCOCCOCCOCCOCCOCCOCCOCCC(=O)NCCOCCOCCOCCNS(=O)(=O)c3ccc(Oc4c(F)cc(/C=C(\C)C(=O)N=C(N)N)cc4F)cc3)cc2)c(F)c1)C(=O)N=C(N)N [Example 102, N1,N31-bis(2-(2-(2-(2-(4-(4-((E)-3 (diaminomethyleneamino)-2-methyl-3-oxoprop-1-enyl)-2,6-difluorophenoxy)phenylsulfonamido)ethoxy)ethoxy)ethoxy)ethyl)-4,7,10,13,16,19,22,25,28-nonaoxahentriacontane-1,31-diamide] | 100 to 1000 |
| C/C(=C\c1cc(F)c(Oc2ccc(S(=O)(=O)NCCOCCOCCOCCNC(=O)NCCOCCOCCOCCNS(=O)(=O)c3ccc(Oc4c(F)cc(/C=C(\C)C(=O)N=C(N)N)cc4F)cc3)cc2)c(F)c1)C(=O)N=C(N)N [Example 46, N,N′-(13-oxo-3,6,9,17,20,23-hexaoxa-12,14-diazapentacosane-1,25-diyl)bis[(E)-N-(diaminomethylene)-3-(3,5-difluoro-4-(4-sulfamoylphenoxy)phenyl)-2-methylacrylamide]] | 100 to 1000 |

Next, values leading:

| IC50 [nM] | Structure (SMILES) |
| --- | --- |
| < 100 | CN1Cc2c(Cl)cc(Cl)cc2[C@H](c2ccc(S(=O)(=O)NCCOCCOCCOCCNC(=O)NCCCCNC(=O)NCCOCCOCCOCCNS(=O)(=O)c3ccc([C@@H]4CN(C)Cc5c(Cl)cc(Cl)cc54)cc3)cc2)C1 (single isomer, unassigned) [Example 251, (S or R)—N,N′-(13,20-dioxo-3,6,9,24,27,30-hexaoxa-12,14,19,21-tetraazadotriacontane-1,32-diyl)bis(4-((S or R)-6,8-dichloro-2-methyl-1,2,3,4-tetrahydroisoquinolin-4-yl)benzenesulfonamide)] |
| < 100 | CN1Cc2c(Cl)cc(Cl)cc2C(c2cccc(S(=O)(=O)NCCOCCOCCOCCn3cc(COCc4cn(CCOCCOCCOCCNS(=O)(=O)c5cccc(C6CN(C)Cc7c(Cl)cc(Cl)cc76)c5)nn4)nn3)c2)C1 (stereo not drawn) [Example 81, N,N′-(2,2′-(2,2-(2,2′-(2,2′-(4,4′-oxybis(methylene)bis(1H-1,2,3-triazole-4,1-diyl))bis(ethane-2,1-diyl))bis(oxy)bis(ethane-2,1-diyl))bis(oxy)bis(ethane-2,1-diyl))bis(oxy)bis(ethane-2,1-diyl))bis(3-(6,8-dichloro-2-methyl-1,2,3,4-tetrahydroisoquinolin-4-yl)benzenesulfonamide)] |
| 1000 to 10000 | CN1Cc2c(Cl)cc(Cl)cc2C(c2cccc(S(=O)(=O)NCCOCCOCCOCCNS(=O)(=O)c3cccc(S(=O)(=O)NCCOCCOCCOCCNS(=O)(=O)c4cccc(C5CN(C)Cc6c(Cl)cc(Cl)cc65)c4)c3)c2)C1 (stereo not drawn) [Example 219, N1,N3-bis(2-(2-(2-(2-(3-(6,8-dichloro-2-methyl-1,2,3,4-tetrahydroisoquinolin-4-yl)phenylsulfonamido)ethoxy)ethoxy)ethoxy)ethyl)benzene-1,3-disulfonamide] |
